ChEMBL document CHEMBL1151322, “Phycomysterols and other sterols from the fungus Phycomyces blakesleeanus” (J Nat Prod, 1998)
≈ marks a conversion by molar mass, not a printed value.

Key:
[1] = system: Human immunodeficiency virus; experiment: Antiviral activity against HIV at 0.64 ug/well; format: functional
[2] = Antitumor activity against mouse SCHABEL cells; format: functional, cell-based
[3] = system: HT-29; experiment: Antitumor activity against human HT-29 cells; format: functional, cell-based
[4] = system: A549; experiment: Antitumor activity against human A549 cells; format: functional, cell-based
[5] = system: SK-MEL-28; experiment: Antitumor activity against human SK-MEL-28 cells; format: functional, cell-based
[6] = system: P388; experiment: Antitumor activity against mouse P388 cells; format: functional, cell-based

## C=C(CC[C@@H](C)[C@H]1CC[C@H]2c3ccc4c(c3CC[C@]12C)CC[C@H](O)C4)C(C)C [PHYCOMYSTEROL A]
[1]
  Activity: 64%
[2]
  IC50: 5 µg/mL (≈ 13.1 µM)
[3]
  IC50: 10 µg/mL (≈ 26.3 µM)
[4]
  IC50: 10 µg/mL (≈ 26.3 µM)
[5]
  IC50: 10 µg/mL (≈ 26.3 µM)
[6]
  IC50: 5 µg/mL (≈ 13.1 µM)
